Key:
[1] = biological target: Histone-lysine N-methyltransferase EZH2 (Homo sapiens, UniProt Q15910); assay: Wild-Type PRC2 Enzyme Assay
Protocol: (§1) The assays were performed in a buffer consisting of 20 mM bicine (pH=7.6), 0.5 mM DTT, 0.005% BSG, 100 mM KCl and 0.002% Tween20, prepared on the day of use. […] DMSO (1 μL) was added to columns 11, 12, 23, 24, rows A-H for the maximum signal control, and SAH, a known product and inhibitor of PRC2 (1 μL) was added to columns 11, 12, 23, 24, rows I-P for the minimum signal control. A cocktail (40 μL) containing the wild-type PRC2 enzyme and chicken erythrocyte oligonucleosome was added by Multidrop Combi (Thermo). The compounds were allowed to incubate with PRC2 for 30 min at 25° C., then a cocktail (10 μL) containing a mixture of non-radioactive and 3H-SAM was added to initiate the reaction (final volume=51 μL). […] The assay was stopped by the addition of non-radioactive SAM (10 μL) to a final concentration of 600 μM, which dilutes the 3H-SAM to a level where its incorporation into the chicken erythrocyte olignonucleosome substrate is no longer detectable. […] The plates were then read in a PerkinElmer TopCount platereader to measure the quantity of 3H-labeled chicken erythrocyte oligonucleosome bound to the Flashplate surface, measured as disintegrations per minute (dpm) or alternatively, referred to as counts per minute (cpm).

[2] = biological target: Histone-lysine N-methyltransferase EZH2 [Y641F] (Homo sapiens, UniProt Q15910, Y641F); assay: Wild-Type PRC2 Enzyme Assay
Histone-lysine N-methyltransferase EZH2 [Y641F], sequence (Q15910 whole entry Y641F): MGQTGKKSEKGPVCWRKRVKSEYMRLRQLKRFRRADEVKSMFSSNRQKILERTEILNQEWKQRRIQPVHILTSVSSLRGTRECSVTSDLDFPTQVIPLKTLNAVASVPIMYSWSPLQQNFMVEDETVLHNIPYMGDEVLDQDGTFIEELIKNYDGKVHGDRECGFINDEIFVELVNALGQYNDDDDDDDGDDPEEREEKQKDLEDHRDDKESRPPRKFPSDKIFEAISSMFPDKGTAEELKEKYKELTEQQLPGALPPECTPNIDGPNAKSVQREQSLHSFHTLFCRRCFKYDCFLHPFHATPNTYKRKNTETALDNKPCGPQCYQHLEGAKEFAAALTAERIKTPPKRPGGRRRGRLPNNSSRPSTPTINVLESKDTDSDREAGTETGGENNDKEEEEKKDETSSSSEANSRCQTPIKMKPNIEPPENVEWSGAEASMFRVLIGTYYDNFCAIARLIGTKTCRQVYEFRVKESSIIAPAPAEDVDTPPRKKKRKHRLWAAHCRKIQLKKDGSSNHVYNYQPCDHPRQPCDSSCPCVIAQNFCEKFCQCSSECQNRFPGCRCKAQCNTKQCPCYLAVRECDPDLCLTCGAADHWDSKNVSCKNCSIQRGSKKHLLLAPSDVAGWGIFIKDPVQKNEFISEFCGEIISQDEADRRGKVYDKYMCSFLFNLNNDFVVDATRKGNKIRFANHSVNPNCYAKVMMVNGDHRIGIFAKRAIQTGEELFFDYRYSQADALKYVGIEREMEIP
Protocol: as §1

Histone-lysine N-methyltransferase EZH2, sequence (Q15910 whole entry): as the sequence (Q15910 whole entry Y641F) above, with F641Y counted along it

Work on `CCN(c1cc(Cl)cc(C(=O)NCc2c(C)cc3cc[nH]n3c2=O)c1C)[C@H]1CC[C@H](N(C)C)CC1` [US10150764, Compound 2] yielded an IC50 [1] of 15.1 µM and an IC50 [2] of 8.35 µM.

— BindingDB's records for patent US10150764 (Epizyme, 2018)
